In assay [1] the target is T1, Vasopressin V2 receptor (Sus scrofa, UniProt P32307). The assay is described as follows: Compound was tested for inhibition against V2 vasopressin receptor in pig renal medullary membrane preparations. Format: cell membranes, Renal medulla.
Assay [2] relates to Rattus norvegicus. In words: Compound was tested in vivo to lower urine osmolality to 300 mOsm/kg in hydropenic rat preparation. The class given is functional.
Assay [3] concerns the target Vasopressin V2 receptor (Sus scrofa) (UniProt P32307). In words: Compound was tested for binding affinity against V2 vasopressin receptor in pig renal medullary membrane preparations using tritiated LVP. Format: cell membranes. The following applies: Renal medulla.
For assay [4], the system named is Rattus norvegicus. The assay is described as follows: Compound was tested in vivo to lower urine osmolality to 300 mOsm/kg in hydropenic rat preparation; na=No activity. Format: functional, organism-based.
Assay [5] is filed under the species Sus scrofa. In words: Compound was tested for adenylate cyclase activation in pig renal medullary membrane preparations. Format: functional. The following applies: Renal medulla.
The target in assay [6] is T1, Vasopressin V2 receptor. The assay is described as follows: Compound was tested for inhibition against V2 vasopressin receptor in pig renal medullary membrane preparations; e=Partial agonist with a relative Vmax of 14%. The class given is functional, cell membranes, Renal medulla.

The text below walks through data of ChEMBL document CHEMBL1123377, “Potent antagonists of vasopressin antidiuretic activity that lack the beta,beta-cyclopentamethylene-beta-mercaptopropionic acid substitution at position 1” (J Med Chem, 1986).

Calls of active or inactive are those of the source. The calls are words filed in the database; no cut-off is given here.

A word on the Ki: it is a dissociation constant, usually derived from enzyme kinetics or from competition with a known ligand. Read a low Ki as tighter binding.

T1 sequence (P32307 whole entry): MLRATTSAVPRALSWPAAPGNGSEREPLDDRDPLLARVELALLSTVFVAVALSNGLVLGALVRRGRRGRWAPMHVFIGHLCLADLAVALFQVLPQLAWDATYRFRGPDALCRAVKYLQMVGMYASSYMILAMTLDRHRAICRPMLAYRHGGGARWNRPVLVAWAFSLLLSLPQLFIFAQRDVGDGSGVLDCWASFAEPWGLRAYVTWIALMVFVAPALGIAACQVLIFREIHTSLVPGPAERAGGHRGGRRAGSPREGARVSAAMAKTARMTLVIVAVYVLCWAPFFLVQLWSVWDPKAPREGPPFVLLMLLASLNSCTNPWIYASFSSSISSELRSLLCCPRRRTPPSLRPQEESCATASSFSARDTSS
Chain of Vasopressin V2 receptor (Sus scrofa) (P32307 whole entry): as above

Turning to `CCOc1ccc(C[C@H]2NC(=O)CC(CC)(CC)SSC[C@@H](C(=O)N3CCC[C@H]3C(=O)N[C@@H](CCCNC(=N)N)C(N)=O)NC(=O)[C@H](CC(N)=O)NC(=O)[C@H](C(C)C)NC(=O)[C@H](Cc3ccccc3)NC2=O)cc1`, the inhibition constant (Ki) in assay [1] was determined as 8.9 nM. This lies in the single-digit nanomolar range.

On to `CCOc1ccc(C[C@@H]2NC(=O)CC3(CCCCC3)SSC[C@H](C(=O)N3CCC[C@H]3C(=O)N[C@H](CCCN=C(N)N)C(N)=O)NC(=O)[C@@H](CC(N)=O)NC(=O)[C@H](C(C)C)NC(=O)[C@@H](Cc3ccccc3)NC2=O)cc1`, for which the ED300 in assay [2] was determined as 0.3 mg/kg. The compound also gave a K bind in assay [3] of 280 nM.

`CCOc1ccc(C[C@H]2NC(=O)CC(CC)(CC)SSC[C@@H](C(=O)N3CCC[C@H]3C(=O)N[C@@H](CCCN=C(N)N)C(=O)NCC(N)=O)NC(=O)[C@H](CC(N)=O)NC(=O)[C@H](C(C)C)NC(=O)[C@H](Cc3ccccc3)NC2=O)cc1` [listing 1 of 2 here] gave an ED300 in assay [2] of 0.023 mg/kg.

In assay [2], `CCOc1ccc(C[C@@H]2NC(=O)CC(CC)(CC)SSC[C@H](C(=O)N3CCC[C@H]3C(=O)N[C@H](CCCN=C(N)N)C(N)=O)NC(=O)[C@@H](CC(N)=O)NC(=O)[C@H](C(C)C)NC(=O)[C@@H](Cc3ccccc3)NC2=O)cc1` returned an ED300 of 0.12 mg/kg. Besides, the K bind in assay [3] came out at 450 nM.

Take `CCOc1ccc(C[C@H]2NC(=O)CC(C)(C)SSC[C@H](C(=O)N3CCC[C@H]3C(=O)N[C@H](CCCN=C(N)N)C(=O)NCC(N)=O)NC(=O)[C@@H](CC(N)=O)NC(=O)[C@H](C(C)C)NC(=O)[C@@H](Cc3ccccc3)NC2=O)cc1`: in assay [4], the ED300 entry was “inactive”. The same compound showed a K bind in assay [3] of 39 nM. Further, the K act in assay [5] is 79 nM. The inhibition constant (Ki) entry in assay [6] is listed as “Partial agonist”.

Turning to `CCOc1ccc(C[C@H]2NC(=O)CC(CC)(CC)SSC[C@@H](C(=O)N3CCC[C@H]3C(=O)N[C@@H](CCCN=C(N)N)C(N)=O)NC(=O)[C@H](CC(N)=O)NC(=O)[C@H](C(C)C)NC(=O)[C@H](Cc3ccccc3)NC2=O)cc1`, the ED300 in assay [2] was determined as 0.012 mg/kg.

`CCOc1ccc(C[C@H]2NC(=O)CC(CC)(CC)SSC[C@H](C(=O)N3CCC[C@H]3C(=O)N[C@H](CCCN=C(N)N)C(N)=O)NC(=O)[C@@H](CC(N)=O)NC(=O)[C@H](C(C)C)NC(=O)[C@@H](Cc3ccccc3)NC2=O)cc1`: the K bind in assay [3] is 30 nM.

The compound `CCOc1ccc(C[C@H]2NC(=O)CC3(CCCCC3)SSC[C@@H](C(=O)N3CCC[C@H]3C(=O)N[C@@H](CCCN=C(N)N)C(=O)NCC(N)=O)NC(=O)[C@H](CC(N)=O)NC(=O)[C@H](C(C)C)NC(=O)[C@H](Cc3ccccc3)NC2=O)cc1` displayed an ED300 in assay [2] of 0.011 mg/kg.

On to `CCOc1ccc(C[C@H]2NC(=O)CC3(CCCCC3)SSC[C@H](C(=O)N3CCC[C@H]3C(=O)N[C@H](CCCN=C(N)N)C(N)=O)NC(=O)[C@@H](CC(N)=O)NC(=O)[C@H](C(C)C)NC(=O)[C@@H](Cc3ccccc3)NC2=O)cc1`, for which the ED300 in assay [2] stood at 0.01 mg/kg. In addition, the K bind in assay [3] is 12 nM.

Take `CCOc1ccc(C[C@H]2NC(=O)CC3(CCCCC3)SSC[C@H](C(=O)N3CCC[C@H]3C(=O)N[C@H](CCCN=C(N)N)C(=O)NCC(N)=O)NC(=O)[C@@H](CC(N)=O)NC(=O)[C@H](C(C)C)NC(=O)[C@@H](Cc3ccccc3)NC2=O)cc1`: the K bind in assay [3] was 12 nM.

For the compound `CCOc1ccc(C[C@H]2NC(=O)CC(CC)(CC)SSC[C@H](C(=O)N3CCC[C@H]3C(=O)N[C@H](CCCN=C(N)N)C(=O)NCC(N)=O)NC(=O)[C@@H](CC(N)=O)NC(=O)[C@H](C(C)C)NC(=O)[C@@H](Cc3ccccc3)NC2=O)cc1`, the K bind in assay [3] turned out to be 35 nM.

For the compound `CCOc1ccc(C[C@H]2NC(=O)CC(CC)(CC)SSC[C@@H](C(=O)N3CCC[C@H]3C(=O)N[C@@H](CCCN=C(N)N)C(=O)NCC(N)=O)NC(=O)[C@H](CC(N)=O)NC(=O)[C@H](C(C)C)NC(=O)[C@H](Cc3ccccc3)NC2=O)cc1` [listing 2 of 2 here], the inhibition constant (Ki) in assay [1] turned out to be 5.3 nM.
